Patent US20250276952A1, “4-AMINOPHENYL-THIAZOLE DERIVATIVES AND METHODS OF USE THEREOF” (CYTEIR THERAPEUTICS, INC., priority 2022, published 2025)
Read-outs that look alike come from different tables or passages of the source.

Key:
human MCT1 = molecular target: T1, human MCT1 (Homo sapiens, UniProt P53985); assay: MCT1 transport inhibition assay (TPGA uptake, LC-MS/MS); assay type: cell-based; conditions: MDCK-II cells overexpressing human MCT1, TPGA transport, read-out: BioIVT MCT1 Transporter IC50
T1 construct: expressed in transfected cells; host or cells: MDCK-II cells, transiently co-transfected for 48 h
T1 sequence (P53985 1-500): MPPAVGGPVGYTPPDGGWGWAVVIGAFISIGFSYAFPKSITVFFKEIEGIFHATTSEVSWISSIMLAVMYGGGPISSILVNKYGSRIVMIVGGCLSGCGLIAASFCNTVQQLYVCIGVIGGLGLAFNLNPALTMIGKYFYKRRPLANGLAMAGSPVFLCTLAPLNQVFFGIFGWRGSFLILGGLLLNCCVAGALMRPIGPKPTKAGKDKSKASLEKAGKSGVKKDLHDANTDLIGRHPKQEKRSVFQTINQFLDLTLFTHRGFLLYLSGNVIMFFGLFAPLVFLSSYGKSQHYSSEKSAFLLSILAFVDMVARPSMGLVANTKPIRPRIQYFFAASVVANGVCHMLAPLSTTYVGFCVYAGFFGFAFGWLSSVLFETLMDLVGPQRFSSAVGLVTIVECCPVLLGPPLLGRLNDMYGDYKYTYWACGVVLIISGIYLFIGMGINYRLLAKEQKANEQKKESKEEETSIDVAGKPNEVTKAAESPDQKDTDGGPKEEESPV
T1 sequence (P35613 140-385 partner limits assumed): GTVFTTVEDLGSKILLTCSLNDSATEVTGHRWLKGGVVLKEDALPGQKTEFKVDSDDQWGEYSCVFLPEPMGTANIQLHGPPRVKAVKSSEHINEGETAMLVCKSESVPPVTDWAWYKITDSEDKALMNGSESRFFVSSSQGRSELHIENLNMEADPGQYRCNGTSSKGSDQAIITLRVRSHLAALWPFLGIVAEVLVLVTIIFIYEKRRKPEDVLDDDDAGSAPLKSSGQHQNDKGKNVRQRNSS
Experimental: Inhibition of MCT1 transport after treatment with compounds of the present invention was measured in MDCK-II cells that overexpress human MCT1 by quantifying the transport of 2-Thiophene-glycoxylic acid (TPGA) into cells using LC-MS/MS.
MDCK-II cells are seeded at 60,000 cells per well in growth medium (low-glucose DMEM+10% FBS) in 96-well trans-well membrane plates, and incubated overnight (37° C., 5% CO2). Cells were co-transfected with mammalian expression constructs coding for MCT1 and CD147 at a 2:1 ratio or an empty vector control (GFP) and then incubated for 48 h (37° C., 5% CO2). Cells were washed 3 times with HBSS and cells were preincubated with inhibitors or vehicle control at room temperature in HBSS for 30 min with orbital shaking (60 rpm). HBSS was aspirated from the wells and replaced with HBSS with 25 mM Bis-Tris pH5.5+inhibitor or vehicle control+500 μM TPGA and incubated for 1 min at room temperature with orbital shaking (60 rpm). Both the apical and basolateral side of the trans-well insert were washed 4 times with ice-cold PBS. Cells were lysed with 60 μL of cell extraction solution, and the amount of TPGA in each well was quantified in triplicate by LC-MS/MS. The MCT1-mediated uptake rate was calculated using the following equation: […]
Percent inhibition for each concentration of inhibitor tested was calculated using the following equation: […]
Curves were fit to the calculated percent inhibition for each inhibitor, and the IC50 representing the concentration of inhibitor at which MCT1 is inhibited by 50% was calculated from this curve.

[1] = test system: Daudi (Burkitt Lymphoma) cells; assay: Intracellular lactate accumulation assay (Lactate-Glo, 2 h treatment); assay type: cell-based; conditions: Homo sapiens, read-out: LactateGlo EC50
Experimental: Intracellular lactate accumulation after a 2 h treatment with compounds of the present invention was measured in Daudi (Burkitt Lymphoma) cells using the Lactate-Glo Assay (Promega).
Daudi cells were seeded at 7,500 cells per well in 150 μL of growth medium (RPMI-1640 with 2 mM GlutaMAX+10% FBS) in clear, 96-well, flat-bottom microplates, and incubated overnight (37° C., 5% CO2). Compounds of the present invention were added using an INTEGRA VIAFLO 96 (8 point, 3-fold serial dilution, top concentration 1, 10, or 20 μM, 0.4% final DMSO concentration). After a 2 h incubation (37° C., 5% CO2) microplates containing cells were washed twice with 150 μL ice-cold PBS, resuspended in 25 μL ice-cold PBS containing 12.5 μL 0.6N HCl, and placed on a microplate shaker for 5 min to lyse the cells. Following lysis, 12.5 μL 1M Trizma base was added to neutralize the suspension, and microplates were returned to the microplate shaker for 1 min. Plates were sealed and stored at −20° C. until further processing. On the day of the assay, microplates were thawed for 45 min at room temperate and […] Lactate Detection Reagent (prepared as specified by manufacturer) was added to each well. Microplates were placed on a plate shaker for 1 min and incubated at room temperature for 1 h. Luminescence was measured using a BioTek Cytation 5 Multi-Mode Reader. Curve fitting and calculation of EC50 was performed using GraphPad Prism.

Row | Compound | EC50 [1] | also measured
1 | Cc1[nH]nc(C(F)(F)F)c1Cc1sc2c(c1C(=O)N1C[C@](C)(O)CO1)c(=O)n(C)c(=O)n2C(C)C [AZD3965] | – | IC50 (human MCT1; numeric values): 0.19 µM
2 | COCCn1c(-c2ccc(NC(=O)OC(C)C)cc2F)cnc1[C@H]1CC[C@H](NC(=O)OC(C)C)CC1 [Example 32, isopropyl ((trans)-4-(5-(2-fluoro-4-((isopropoxycarbonyl)amino)phenyl)-1-(2-methoxyethyl)-1H-imidazol-2-yl)cyclohexyl)carbamate] | – | IC50 (human MCT1; class symbols): > 5 µM
3 | O=C(Nc1ccccc1C(=O)O)c1cc(S(=O)(=O)c2ccccc2)ccc1Cl [BAY8002] | – | IC50 (human MCT1; numeric values): 0.073 µM
4 | CC(C)OC(=O)N[C@H]1CC[C@H](c2ncc(-c3ccc(NC(=O)NCc4ccccc4)cc3O)s2)CC1 [Example 20, isopropyl ((trans)-4-(5-(4-(3-benzylureido)-2-hydroxyphenyl)thiazol-2-yl)cyclohexyl)carbamate] | < 0.05 µM | –
5 | CC(C)OC(=O)Nc1ccc(-c2cnc([C@H]3CC[C@H](NC(=O)OC(C)C)CC3)s2)c(F)c1 [Example 23, isopropyl ((trans)-4-(5-(2-fluoro-4-((isopropoxycarbonyl)amino)phenyl)thiazol-2-yl)cyclohexyl)carbamate] | > 5 µM | –
6 | COc1cc(NC(=O)OC(C)C)ccc1-c1cnc([C@H]2CC[C@H](NC(=O)OC(C)C)CC2)s1 [Example 14, isopropyl ((trans)-4-(5-(4-((isopropoxycarbonyl)amino)-2-methoxyphenyl)thiazol-2-yl)cyclohexyl)carbamate] | 0.15 to 1 µM | –
7 | CC(C)OC(=O)N[C@H]1CC[C@H](c2ncc(-c3ccc(NC(=O)NCc4ccccc4)cc3N)s2)CC1 [Example 19, isopropyl ((trans)-4-(5-(2-amino-4-(3-benzylureido)phenyl)thiazol-2-yl)cyclohexyl)carbamate] | < 0.05 µM | –
